“Also recorded” adds a separate entry of the source.

The results in this text go back to patent US6441027B1, “Method of regulating the female reproductive system through angiogenesis inhibitors” (Children's Medical Center Corporation, priority 1996, dated 2002).

What all share (assay type): in vivo, mouse
The test system of data set [1] is non-pregnant cycling mice. Kind of data set: Cycling mice, chronic treatment: estrous cycle and mating. From the text:
Female mice were housed individually in cages and acclimated for one week. The stage of the estrous cycles was checked by visual inspection of the vagina according to the criteria of Champlin^28 and the examiner was blinded to the treatment group. Determining the stage of the estrous cycle in the mouse by the appearance of the vagina. Animals were monitored daily and graded for color, size of opening, striations and swelling. Based on these observations each individual was assigned to a cycle stage (diestrus, proestrus, estrus, or metestrus).
(§1) Mice were randomized and received either AGM-1470 30 mg/kg s.c. or saline 0.1 ml s.c. every other day for 16 days (approximately four estrous cycles). On the last of four days of treatment mice were housed with male mice to see if successful mating and conception would occur. On day 16 mice were weighed and sacrificed by cervical dislocation. The ovaries were resected enbloc, fixed in Carnoy's fixative, and embedded in paraffin according to standard histologic techniques. Sections were cut at 6 microns and stained with hematoxylin and eosin.

For another data set, the system named is corpora lutea. Kind of data set: Cycling mice, chronic treatment: examination of the ovaries. To be noted: 30 mg/kg every other day for 16 days. How it is done: as §1
Another data set relates to endometrium. Kind of data set: Cycling mice, chronic treatment: examination of the uterus. How it is done:
as §1
To determine microvessel density, Carnoy's-fixed tissue sections were pretreated with 2 microgram/ml Proteinase K (Boehringer Mannheim, Mannheim, Germany) at 37° Celsius for 15 minutes before staining with a rabbit polyclonal antibody against mouse factor VIII (Dako, Carpinteria, Calif.). Positive staining was detected by incubating sequentially with a secondary antibody against rabbit conjugated to horseradish peroxidase (Dako) and diaminobenzidine tetrahydrochloride (DAB) (Dako) as a chromagen. Sections were counterstained with methyl green (Schmid & Co., Stuttgart, Germany) and mounted in Permount (Fisher, Fair Lawn, N.J.). Microvessel density was determined by light microscopy. Each count was expressed as the number of microvessels identified within a selected field. Ten fields per section were counted.
To determine the rate of cellular proliferation, staining for proliferating cell nuclear antigen (PCNA) was performed. Carnoy's-fixed sections were pretreated in target unmasking fluid (Signet Laboratories, Dedham, Mass.) for 10 minutes at 90° for antigen retrieval. Immunohistochemical staining was performed with an anti-PCNA murine monoclonal antibody (Signet). Positive staining was detected by using horse radish peroxidase-conjugated secondary (Dako) and tertiary (Dako) antibodies, and DAB as a chromagen. The PCNA labeling index was determined by counting the percentage of stained cells under light microscopy within selected 630× fields. A minimum of 1,000 cells were counted for each specimen.
For staining of apoptotic cells, Carnoy's-fixed sections were treated according to the protocol of the Apoptag manufacturer (Oncor, Gaithersburg, Md.) except the pretreatment step with Proteinase K was omitted. After TdT labeling of specimens, positive staining was detected with a peroxidase-labeled antibody against deoxyuridine peroxidase substrate. Sections were counterstained as described above. The apoptotic index was determined by counting the percentage of stained cells under light microscopy within selected 630× fields. A minimum of 1,000 cells was counted for each specimen.
In experiments with AGM-1470 treatment of pregnant mice, transverse sections through embryos contained within the uterus were stained. Microvessels density was determined at the intersite endometrium and PCNA was determined in the decidual stroma. In experiments with AGM-1470 treatment of non-pregnant mice, transverse sections through the endometrium were stained for factor VIII, PCNA or apoptotic cells at the level of the endometrial lumen at its widest diameter. Statistical analysis was performed with ANOVA on ranked data to account for the expected variation of endometrial angiogenesis and glandular proliferation in the control due to different phases of the estrous cycle.

In another data set the test system is inseminated mice. Kind of data set: Number of implantation sites after single dose pre-implantation. To be noted: 30 mg/kg on E1, n=16. How it is done:
The same procedures were followed as described above in Example 2 to administer 30 mg/kg AGM-1470 in single doses on the specified days. The mice were sacrificed and the number of implantation cites were counted. There was no decrease in the number of implantation cites when AGM-1470 was given on E1 [control mice had 8±0.2 implants (n=29), mice injected with AGM-1470 on E1 had 9±0.4 implants (n=16)].

For data set [2], the system named is embryo and yolk sac blood vessels. The experiment in a line: Whole mount anti-CD31/PECAM staining of embryo and yolk sac on E9. The conditions noted are these: 30 mg/kg on E7, studied E9. How it is done: Mice were treated with 30 mg/kg AGM-1470 following the same protocol in Example 2. The control and AGM-1470 treated embryos were studied on E9 by whole mount immunohistochemistry for CD-31/PECAM to stain blood vessels. The fetus and the yolk sack in the mice given AGM-1470 on E1 were excluded due to necrosis by E9. […] Loss of vascular development in the embryo could be due to either a direct effect of AGM-1470 on the embryonic vasculature or to a secondary effect caused by failure of normal placental and yolk sac development.
The whole-mount immunohistochemistry with monoclonal antibody to mouse PECAM (CD31) was performed essentially as described by Schlaeger^29 Embryos were dissected from the uterus and fixed in 4% paraformaldehyde, PBS at 4° Celsius overnight. The fixed embryos were subsequently rinsed in PBS at room temperature and dehydrated in a methanol series. The dehydrated embryos were bleached in 5% hydrogen peroxide in methanol for 4 to 5 hours at room temperature and then rinsed twice in methanol. Embryos were stored at −20° Celsius until used. The bleached embryos were rehydrated and blocked with PBSMT (3% instant skim milk, 0.1% Triton X-100, PBS) for one hour twice at room temperature. The embryos were then incubated with a 1:10 diluted hybridoma supernatant in PBSMT at 4° Celsius overnight. On the next day, the embryos were washed with PBSMT at 4° Celsius five times (1 hour each) and then incubated with a biotinylated secondary anti-rat IgG, mouse adsorbed (Vector Laboratories, Burlingame, Calif.) in PBSMT at 4° Celsius overnight. On the third day, the embryos were rinsed in PBSMT at 4° Celsius five times (1 hour each) and then incubated in avidin and horse radish conjugated biotin in PBSMT (1:100 dilution) (Vectastatin Elite Standard ABC Kit, Vector Laboratories) overnight at 4° Celsius. On the fourth day embryos were rinsed in PBSMT at 4° Celsius five time (1 hour each) and finally in PBT (0.2% BSA, 0.1% Triton-X100, PBS) for 20 minutes at room temperature. […]

Setting [3] is: 30 mg/kg s.c. every other day for 16 days.
[4] abbreviates: 30 mg/kg every other day for 16 days.
[5] abbreviates: 30 mg/kg every other day for 16 days, n=6.
Where [6] appears, read: 30 mg/kg every other day for 16 days, vs control.

As for `CO[C@@H]1[C@H](OC(=O)NC(=O)CCl)CC[C@]2(CO2)[C@H]1[C@@]1(C)O[C@@H]1CC=C(C)C` [AGM-1470, O-chloroacetylcarbamoyl fumagillol], in data set [1] (30 mg/kg s.c. every other day), the “first occurrence of abnormal (closed, red, dry) vaginal morphology” value is 5.6±3.2 days of treatment and the “mice with new vaginal morphology within 10 days of start of treatment” value is 8 of 8. Further, the “effect on estrous cycle” value in data set [1] (setting [3]) was “interruption of the normal estrous cycle”. For the same compound, in data set [1] (chronic high dose, sexually mature cycling mice), the “time to full recovery after drug was discontinued” value was found to be 7 weeks. For the same compound, the “successful mating (plugging)” value in data set [1] (housed with males on last four days of 16 day treatment) is given as “no visually evident plugging”. Besides, the “corpora lutea smaller than control” value in the data set with corpora lutea is listed as 61%. Further, the “number of corpora lutea” value in the data set on corpora lutea (vs control) is “fewer; also recorded: decreased size and number of corpora lutea”. Besides, in the data set on endometrium (setting [4]), the “decrease in microvessel density (Factor VIII) vs control” value came out at 41%, the “decrease in number of proliferating vessels” value amounted to 71%, the “decrease in percentage of proliferating glandular epithelial cells (PCNA)” value is 67% and the “decrease in proliferation rate of endometrial stromal cells (PCNA)” value came out at 68%. In addition, in the data set on endometrium (30 mg/kg every other day for 16 days, n=5), the “number of proliferating vessels” value came out at 5±2 vessels/X630 field. Besides, in the data set with endometrium (setting [5]), the endometrial glands was determined as 3±2 glands/X250 field, the “percentage of proliferating glandular epithelial cells (PCNA)” value was 10%±3 and the “proliferation rate of endometrial stromal cells (PCNA)” value is 5% ±2. In the data set with endometrium (setting [6]), the “apoptotic index (Apo-Tag staining)” value was “not significantly different” and the uterus thickness result was “consistently thinner”. The “fewer endometrial glands than control” value with endometrium (setting [3]) was determined as 63%. Besides, in the data set with inseminated mice, the “number of implantation sites” value is recorded as 9±0.4 implants. In addition, in data set [2], the “CD31 labeled vessels in heart and liver bud” value is reported as “almost a complete loss of CD31 labeled vessels”; the “capillary density of embryo (CD31)” value is given as “loss of capillary density; also recorded: diffuse decrease in capillary density”; the “capillary density of yolk sac (CD31)” value was “decrease in density and intercapillary distance of capillaries; also recorded: decreased capillary density”.
